Read-outs that look alike come from different tables or passages of the source.
Assays:
P-388 = experiment: Inhibition of cell growth by counting cells, P-388; format: cell-based, mouse; details: Mus musculus, P388, 72 h; three days of incubation; read-out: IC50 (molar) P-388
How it was run: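 Mouse P-388 lymphoid neoplasm suspension cells seeded at 1×10^4 cells/well in EMEM 5% FCS containing graded sample concentrations, in duplicate alongside drug-free growth controls. Cells counted by Coulter counter; % growth vs untreated gives dose-response curves, IC50 = concentration producing 50% growth inhibition.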

A-549 = experiment: Inhibition of cell growth by counting cells, A-549; format: cell-based, human; details: Homo sapiens, A549, 72 h; three days of incubation; read-out: IC50 (molar) A-549
How it was run: (§1)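 Human tumor cells were seeded at 1×10^4 cells per well in EMEM with 5% FCS containing graded compound concentrations, in duplicate, and incubated three days at 37° C, 5% CO2. Cells were then trypsinized and counted electronically; IC50 came from dose-response curves of percent growth versus drug-free controls.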

HT-29 = experiment: Inhibition of cell growth by counting cells, HT-29; format: cell-based, human; details: Homo sapiens, HT-29, 72 h; three days of incubation; read-out: IC50 (molar) HT-29
How it was run: as §1

MEL-28 = experiment: Inhibition of cell growth by counting cells, MEL-28; format: cell-based, human; details: Homo sapiens, SK-MEL-28, 72 h; three days of incubation; read-out: IC50 (molar) MEL-28
How it was run: as §1

DU-145 = experiment: Inhibition of cell growth by counting cells, DU-145; format: cell-based, human; details: Homo sapiens, DU-145, 72 h, read-out: IC50 (molar) DU-145
How it was run: as §1

Compound	IC50 (P-388)	IC50 (A-549)	IC50 (HT-29)	IC50 (MEL-28)	IC50 (DU-145; three days of incubation)	IC50 (DU-145)
COc1cc2c(cc1O)CCN[C@]21CS[C@@H]2c3c(OC(=O)C(F)(F)F)c(C)c4c(c3[C@H](COC1=O)N1C2[C@H]2c3c(cc(C)c(OC)c3O)C[C@@H]([C@@H]1C#N)N2C)OCO4 (some centres unmarked) [Compound 159]	1.37 nM	1.37 nM	1.37 nM	1.37 nM	1.37 nM	
CCCCCCCC(=O)Oc1c(C)c2c(c3c1[C@H]1SC[C@]4(NCCc5cc(O)c(OC)cc54)C(=O)OC[C@@H]3N3C1[C@H]1c4c(cc(C)c(OC)c4O)C[C@@H]([C@@H]3O)N1C)OCO2 (some centres unmarked) [Compound 168]	0.591 nM	0.591 nM	0.591 nM	0.591 nM	0.591 nM	
COc1cc2c(cc1OC(C)=O)CCN[C@]21CS[C@@H]2c3c(OC(C)=O)c(C)c4c(c3[C@H](COC1=O)N1C2[C@H]2c3c(cc(C)c(OC)c3O)C[C@@H]([C@@H]1C#N)N2C(=O)OC(C)(C)C)OCO4 (some centres unmarked) [Compound 191]	1.11 nM	1.11 nM	1.11 nM	1.11 nM	1.11 nM	
CCCC(=O)Oc1cc2c(cc1OC)[C@@]1(CS[C@@H]3c4c(OC(C)=O)c(C)c5c(c4[C@H](COC1=O)N1C3[C@H]3c4c(cc(C)c(OC)c4O)C[C@@H]([C@@H]1C#N)N3C(=O)OC(C)(C)C)OCO5)NCC2 (some centres unmarked) [Compound 192]	5.39 nM	5.39 nM	5.39 nM	5.39 nM		5.39 nM
COc1cc2c(cc1OC(=O)/C=C/c1ccccc1)CCN[C@]21CS[C@@H]2c3c(OC(C)=O)c(C)c4c(c3[C@H](COC1=O)N1C2[C@H]2c3c(cc(C)c(OC)c3O)C[C@@H]([C@@H]1C#N)N2C(=O)OC(C)(C)C)OCO4 (some centres unmarked) [Compound 194]	50.7 nM	50.7 nM	50.7 nM	50.7 nM	50.7 nM	
CCCCCCCC(=O)Oc1cc2c(cc1OC)[C@@]1(CS[C@@H]3c4c(OC(C)=O)c(C)c5c(c4[C@H](COC1=O)N1C3[C@H]3c4c(cc(C)c(OC)c4O)C[C@@H]([C@@H]1C#N)N3C(=O)OC(C)(C)C)OCO5)NCC2 (some centres unmarked) [Compound 195]	10.2 nM	10.2 nM	10.2 nM	10.2 nM	10.2 nM	
CCCCCCCC(=O)Oc1cc2c(cc1OC)[C@@]1(CS[C@@H]3c4c(OC(C)=O)c(C)c5c(c4[C@H](COC1=O)N1C3[C@H]3c4c(cc(C)c(OC)c4OC(=O)CCCCCCC)C[C@@H]([C@@H]1C#N)N3C(=O)OC(C)(C)C)OCO5)NCC2 (some centres unmarked) [Compound 196]	9020 nM	9020 nM	9020 nM	9020 nM	9020 nM	
CCCCCCCCCCCCCCCC(=O)Oc1cc2c(cc1OC)[C@@]1(CS[C@@H]3c4c(OC(C)=O)c(C)c5c(c4[C@H](COC1=O)N1C3[C@H]3c4c(cc(C)c(OC)c4O)C[C@@H]([C@@H]1C#N)N3C(=O)OC(C)(C)C)OCO5)NCC2 (some centres unmarked) [Compound 197]	9130 nM	9130 nM	9130 nM	9130 nM	9130 nM	
CCCCCCCCCCCCCCCC(=O)Oc1cc2c(cc1OC)[C@@]1(CS[C@@H]3c4c(OC(C)=O)c(C)c5c(c4[C@H](COC1=O)N1C3[C@H]3c4c(cc(C)c(OC)c4OC(=O)CCCCCCCCCCCCCCC)C[C@@H]([C@@H]1C#N)N3C(=O)OC(C)(C)C)OCO5)NCC2 (some centres unmarked) [Compound 198]	7500 nM	7500 nM	7500 nM	7500 nM	7500 nM	
COc1cc2c(cc1OC(C)=O)CCN[C@]21CS[C@@H]2c3c(OC(C)=O)c(C)c4c(c3[C@H](COC1=O)N1C2[C@@H]2N[C@@H](Cc3cc(C)c(OC)c(O)c32)[C@@H]1C#N)OCO4 (some centres unmarked) [Compound 202]	0.125 nM	0.125 nM	0.125 nM	0.0625 nM	0.0625 nM	
CCCC(=O)Oc1cc2c(cc1OC)[C@@]1(CS[C@@H]3c4c(OC(C)=O)c(C)c5c(c4[C@H](COC1=O)N1C3[C@@H]3N[C@@H](Cc4cc(C)c(OC)c(O)c43)[C@@H]1C#N)OCO5)NCC2 (some centres unmarked) [Compound 203]	0.121 nM	0.121 nM	0.121 nM	0.121 nM	0.121 nM	
COc1cc2c(cc1OC(=O)/C=C/c1ccccc1)CCN[C@]21CS[C@@H]2c3c(OC(C)=O)c(C)c4c(c3[C@H](COC1=O)N1C2[C@@H]2N[C@@H](Cc3cc(C)c(OC)c(O)c32)[C@@H]1C#N)OCO4 (some centres unmarked) [Compound 204]	0.113 nM	0.113 nM	0.113 nM	0.113 nM	0.113 nM	
CCCCCCCC(=O)Oc1cc2c(cc1OC)[C@@]1(CS[C@@H]3c4c(OC(C)=O)c(C)c5c(c4[C@H](COC1=O)N1C3[C@@H]3N[C@@H](Cc4cc(C)c(OC)c(O)c43)[C@@H]1C#N)OCO5)NCC2 (some centres unmarked) [Compound 205]	0.113 nM	0.113 nM	0.113 nM	0.113 nM	0.113 nM	
CCCCCCCC(=O)Oc1cc2c(cc1OC)[C@@]1(CS[C@@H]3c4c(OC(C)=O)c(C)c5c(c4[C@H](COC1=O)N1C3[C@@H]3N[C@@H](Cc4cc(C)c(OC)c(OC(=O)CCCCCCC)c43)[C@@H]1C#N)OCO5)NCC2 (some centres unmarked) [Compound 206]	49.6 nM	49.6 nM	49.6 nM	49.6 nM	49.6 nM	
CCCCCCCCCCCCCCCC(=O)Oc1cc2c(cc1OC)[C@@]1(CS[C@@H]3c4c(OC(C)=O)c(C)c5c(c4[C@H](COC1=O)N1C3[C@@H]3N[C@@H](Cc4cc(C)c(OC)c(O)c43)[C@@H]1C#N)OCO5)NCC2 (some centres unmarked) [Compound 207]	5.03 nM	5.03 nM	5.03 nM	5.03 nM	5.03 nM	
CCCCCCCCCCCCCCCC(=O)Oc1cc2c(cc1OC)[C@@]1(CS[C@@H]3c4c(OC(C)=O)c(C)c5c(c4[C@H](COC1=O)N1C3[C@@H]3N[C@@H](Cc4cc(C)c(OC)c(OC(=O)CCCCCCCCCCCCCCC)c43)[C@@H]1C#N)OCO5)NCC2 (some centres unmarked) [Compound 208]	8110 nM	8110 nM	8110 nM	8110 nM	8110 nM	
